Data from patent publication US20240174696A1, “2,8-DIAZASPIRO[4.5]DECANE COMPOUNDS” (Genentech, Inc., priority 2021, published 2024).
Counter-ions that a name gives are not always drawn.

The molecules below were run against Human LATS2 catalytic domain (Homo sapiens (Human), UniProt Q9NRM7) (assay: LATS2 High ATP HTRF Assay). Conditions: no asterisk: LATS2 High ATP HTRF Assay, 5000 μM ATP, 0.05 nM LATS2.
Assay type: biochemical
Method: Human LATS2 catalytic domain which contains the amino acids G553-V1088 (accession NP_055387) was purified in-house. The LATS2 catalytic domain was co-purified with Mob1b (accession NP_775739). The LATS2 biochemical HTRF assay was performed using the HTRF KinEASE-STK S1 Kit (Cisbio, Cat #62ST1PEC), following the protocol from the manufacturer. Compounds were dispensed by the Echo Liquid Handler (Labcyte) into a white 384-well plate (PerkinElmer, Cat #6008289). 3 uL of 2×LATS2 enzyme solution was added to the compounds, following by a 10 minute incubation at room temperature. Then, 2×ATP and STK S1 peptide solution was added to initiate the one hour enzyme reaction at room temperature. The final condition of the reaction was 0.2 nM LATS2, 50 μM ATP, 0.5 μM STK S1 peptide in 50 mM HEPES pH7.2, 10 mM MgCl2, 0.1% BGG, 0.005% Brij-35, 1 mM DTT. The reaction was quenched by adding 6 uL of the detection mixture which contained Streptavidin XL665 and STK Antibody-Cryptate (Cisbio), incubate for 1 hour at room temperature. The HTRF (665 nm/620 nm) signal was read on the Envision plater reader (PerkinElmer). The IC50 values were determined by fitting the % inhibition with a nonlinear four-parameter logistical equation. The Ki values were calculated using the Cheng-Prusoff equation for a competitive inhibitor, IC50═Ki (1+S/Km)+M [E] with ATP Km for LATS2=105 μM.
The LATS2 high ATP HTRF assay was performed using the same protocol as the Standard LATS2 HTRF assay. The final condition of the reaction was 0.05 nM LATS2, 5000 μM ATP, 0.5 μM STK S1 peptide in 50 mM HEPES pH7.2, 10 mM MgCl2, 0.1% BGG, 0.005% Brij-35, 1 mM DTT and the 2 hours enzyme reaction at room temperature.

Human LATS2 catalytic domain, sequence (Q9NRM7 553-1088): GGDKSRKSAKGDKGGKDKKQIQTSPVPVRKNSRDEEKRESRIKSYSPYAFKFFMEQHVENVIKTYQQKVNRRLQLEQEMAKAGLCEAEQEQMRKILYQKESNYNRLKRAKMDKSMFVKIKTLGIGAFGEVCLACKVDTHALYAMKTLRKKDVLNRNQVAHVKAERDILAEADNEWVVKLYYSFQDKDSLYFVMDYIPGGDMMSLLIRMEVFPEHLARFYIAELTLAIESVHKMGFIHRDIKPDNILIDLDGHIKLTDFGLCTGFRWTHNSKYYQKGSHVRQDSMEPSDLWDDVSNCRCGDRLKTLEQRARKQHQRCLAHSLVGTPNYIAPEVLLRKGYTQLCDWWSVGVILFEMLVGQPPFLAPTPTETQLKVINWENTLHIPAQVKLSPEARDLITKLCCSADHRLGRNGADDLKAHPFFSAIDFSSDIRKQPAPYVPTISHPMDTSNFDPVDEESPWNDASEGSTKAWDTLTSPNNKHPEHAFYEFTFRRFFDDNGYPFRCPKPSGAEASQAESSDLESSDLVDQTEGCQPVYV
Human LATS2 catalytic domain, sequence (Q7L9L4 whole entry partner, the tested form may be a part): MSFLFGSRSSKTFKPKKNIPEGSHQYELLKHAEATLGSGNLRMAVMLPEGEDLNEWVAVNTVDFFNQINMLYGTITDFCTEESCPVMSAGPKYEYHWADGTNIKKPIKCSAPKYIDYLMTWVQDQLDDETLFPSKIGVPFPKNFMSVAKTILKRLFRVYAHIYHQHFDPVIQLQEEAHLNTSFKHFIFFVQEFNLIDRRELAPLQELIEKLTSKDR

Ki [nM] | SMILES
0.97 | O[C@H]1CC[C@@H]1N1CCC2(CCN(c3nc(-c4ccncc4)nc4cnccc34)CC2)C1 (single isomer, unassigned) [Compound 178]
16.7 | CC(=O)N1CCC2(CCN(c3nc(-c4ccncc4)nc4cnccc34)CC2)C1 [Compound 125, 1-(8-(2-(pyridin-4-yl)pyrido[3,4-d]pyrimidin-4-yl)-2,8-diazaspiro[4.5]decan-2-yl)ethan-1-one]
19.1 | c1cc(-c2nc(N3CCC4(CCN(c5cc[nH]n5)C4)CC3)c3ccncc3n2)ccn1 [Compound 139, 4-(2-(1H-pyrazol-3-yl)-2,8-diazaspiro[4.5]decan-8-yl)-2-(pyridin-4-yl)pyrido[3,4-d]pyrimidine]
88.4 | c1ccc(N2CCC3(CCN(c4nc(-c5ccncc5)nc5cnccc45)CC3)C2)cc1 [Compound 140, 4-(2-phenyl-2,8-diazaspiro[4.5]decan-8-yl)-2-(pyridin-4-yl)pyrido[3,4-d]pyrimidine]
51.4 | N#Cc1[nH]ncc1-c1nc(N2CCC3(CCNC3)CC2)c2ccncc2n1 [Compound 155, 4-(4-(2,8-diazaspiro[4.5]decan-8-yl)pyrido[3,4-d]pyrimidin-2-yl)-1H-pyrazole-5-carbonitrile]
6.58 | CCC(=O)NCc1cc2c(N3CCC4(CCNC4)CC3)nc(-c3ccncc3)nc2cn1 [Compound 159, N-((2-(pyridin-4-yl)-4-(2,8-diazaspiro[4.5]decan-8-yl)pyrido[3,4-d]pyrimidin-6-yl)methyl)propionamide]
7.4 | CN(C)C(=O)C1CC2(CCN(c3nc(-c4ccncc4)nc4cnccc34)CC2)CN1 (stereo not drawn) [Compound 173, N,N-dimethyl-8-(2-(pyridin-4-yl)pyrido[3,4-d]pyrimidin-4-yl)-2,8-diazaspiro[4.5]decane-3-carboxamide]
11.1 | O=C(C1CC2(CCN(c3nc(-c4ccncc4)nc4cnccc34)CC2)CN1)N1CCCC1 (stereo not drawn) [Compound 174, (8-(2-(pyridin-4-yl)pyrido[3,4-d]pyrimidin-4-yl)-2,8-diazaspiro[4.5]decan-3-yl)(pyrrolidin-1-yl)methanone]
22.6 | O=C(C1CC2(CCN(c3nc(-c4ccncc4)nc4cnccc34)CC2)CN1)N1CCOCC1 (stereo not drawn) [Compound 175, morpholino(8-(2-(pyridin-4-yl)pyrido[3,4-d]pyrimidin-4-yl)-2,8-diazaspiro[4.5]decan-3-yl)methanone]
17.5 | N#Cc1cnccc1-c1nc(N2CCC3(CCNC3)CC2)c2ccncc2n1 [Compound 183, 4-(4-(2,8-diazaspiro[4.5]decan-8-yl)pyrido[3,4-d]pyrimidin-2-yl)nicotinonitrile]
5.96 | Fc1[nH]ncc1-c1nc(N2CCC3(CCNC3)CC2)c2ccncc2n1 [Compound 188, 2-(5-fluoro-1H-pyrazol-4-yl)-4-(2,8-diazaspiro[4.5]decan-8-yl)pyrido[3,4-d]pyrimidine]
0.028 | c1cc(-c2nc(N3CCC4(CCNC4)CC3)c3c(C4CC4)cncc3n2)ccn1 [Compound 191, 5-cyclopropyl-2-(pyridin-4-yl)-4-(2,8-diazaspiro[4.5]decan-8-yl)pyrido[3,4-d]pyrimidine]
1.38 | FC(F)(F)Cc1nccc2c(N3CCC4(CCNC4)CC3)nc(-c3ccncc3)nc12 [Compound 192, 2-(pyridin-4-yl)-4-(2,8-diazaspiro[4.5]decan-8-yl)-8-(2,2,2-trifluoroethyl)pyrido[3,4-d]pyrimidine]
0.041 | FC(F)(F)Cc1cc2c(N3CCC4(CCNC4)CC3)nc(-c3ccncc3)nc2cn1 [Compound 193, 2-(pyridin-4-yl)-4-(2,8-diazaspiro[4.5]decan-8-yl)-6-(2,2,2-trifluoroethyl)pyrido[3,4-d]pyrimidine]
0.12 | Cc1n[nH]cc1-c1nc(N2CCC3(CCN(C)C3)CC2)c2cc(CC(F)(F)F)ncc2n1 [Compound 194, 2-(3-methyl-1H-pyrazol-4-yl)-4-(2-methyl-2,8-diazaspiro[4.5]decan-8-yl)-6-(2,2,2-trifluoroethyl)pyrido[3,4-d]pyrimidine]
0.039 | CN1CCC2(CCN(c3nc(-c4ccncc4)nc4cnc(CC(F)(F)F)cc34)CC2)C1 [Compound 195, 4-(2-methyl-2,8-diazaspiro[4.5]decan-8-yl)-2-(pyridin-4-yl)-6-(2,2,2-trifluoroethyl)pyrido[3,4-d]pyrimidine]
13 | Cc1cnsc1-c1nc(N2CCC3(CCNC3)CC2)c2ccncc2n1 [Compound 244, 5-(4-(2,8-diazaspiro[4.5]decan-8-yl)pyrido[3,4-d]pyrimidin-2-yl)-4-methylisothiazole]
11 | CC(=O)N1CC(Oc2cncc3nc(-c4ccncc4)nc(N4CCC5(CCN(C)C5)CC4)c23)C1 [Compound 278, 1-(3-((4-(2-Methyl-2,8-diazaspiro[4.5]decan-8-yl)-2-(pyridin-4-yl)pyrido[3,4-d]pyrimidin-5-yl)oxy)azetidin-1-yl)ethan-1-one]
0.015 | COc1cncc2nc(-c3cn[nH]c3C)nc(N3CCC4(CCN(CC(F)F)C4)CC3)c12 [Compound 281, 4-(2-(2,2-difluoroethyl)-2,8-diazaspiro[4.5]decan-8-yl)-5-methoxy-2-(5-methyl-1H-pyrazol-4-yl)pyrido[3,4-d]pyrimidine]
0.039 | COc1cncc2nc(-c3ccncc3)nc(N3CCC4(CCN(CC5(F)COC5)C4)CC3)c12 [Compound 282, 4-[2-[(3-Fluorooxetan-3-yl)methyl]-2,8-diazaspiro[4.5]decan-8-yl]-5-methoxy-2-(4-pyridyl)pyrido[3,4-d]pyrimidine]
0.096 | COc1cncc2nc(-c3ccncc3)nc(N3CCC4(CCN(CC(C)(O)C(F)(F)F)C4)CC3)c12 (stereo not drawn) [Compound 283, 1,1,1-Trifluoro-3-[8-[5-methoxy-2-(4-pyridyl)pyrido[3,4-d]pyrimidin-4-yl]-2,8-diazaspiro[4.5]decan-2-yl]-2-methyl-propan-2-ol]
4.1 | CN1CCC2(CCN(c3nc(-c4ccncc4)nc4c(C#N)nccc34)CC2)C1 [Compound 284, 4-(2-Methyl-2,8-diazaspiro[4.5]decan-8-yl)-2-(pyridin-4-yl)pyrido[3,4-d]pyrimidine-8-carbonitrile]
14.6 | c1cc(-c2cc(N3CCC4(CCNC4)CC3)c3ccncc3n2)ccn1 [Example 200, 2-(Pyridin-4-yl)-4-(2,8-diazaspiro[4.5]decan-8-yl)-1,7-naphthyridine]
11.3 | c1cc(-c2cc(N3CCC4(CCNC4)CC3)c3ccncc3n2)ncn1 [Example 201, 2-(pyrimidin-4-yl)-4-(2,8-diazaspiro[4.5]decan-8-yl)-1,7-naphthyridine trifluoroacetate]
23 | [O-][n+]1ccc2c(N3CCC4(CCNC4)CC3)nc(-c3ccncc3)nc2c1 [Example 207, 2-(pyridin-4-yl)-4-(2,8-diazaspiro[4.5]decan-8-yl)pyrido[3,4-d]pyrimidine 7-oxide]
60 | Cc1nn(C)cc1-c1nc(N2CCC3(CC2)CCN(C2CCCC2)C3)c2ccncc2n1 [Example 208, 4-(2-cyclopentyl-2,8-diazaspiro[4.5]decan-8-yl)-2-(1,3-dimethyl-1H-pyrazol-4-yl)pyrido[3,4-d]pyrimidine]

SMILES | Ki [nM]
COc1nccc2c(N3CCC4(CCN(C)C4)CC3)nc(-c3ccncc3)nc12 [Example 203, 8-methoxy-4-(2-methyl-2,8-diazaspiro[4.5]decan-8-yl)-2-(pyridin-4-yl)pyrido[3,4-d]pyrimidine] | 80.2
